From US9880084B2, “Apparatus for separation of particles” (THE UNIVERSITY OF BRITISH COLUMBIA, priority 2011, dated 2018)

System: red blood cells
Assay: Red blood cell deformability analysis in microfluidic funnel constriction device (threshold pressure / cortical tension)
Format: cell-based
Conditions: for Average cortical tension calculated based on equation (1): number in brackets = cells tested
Procedure: The deformability of red blood cells was evaluated using a microfluidic cell separation apparatus. An apparatus comprising a serial funnel configuration (schematically represented in FIG. 4) was employed, with funnel constructions of W0=0.5, 1, 1.5, 2, 3, 4, 5 and 6, 7 μm in series. As red blood cells are toroid or disc-shaped, rather than generally spherical, in the absence of movement restriction, they may progress through the device as a ‘flat’ disk (e.g. sideways), or ‘on edge’ (substantially upright, like a wheel). A channel with a height of about 2-3 μm or less will confine the majority of red blood cells to migrate as a ‘flat disk, while a channel with a height greater than about 3-4 μm will allow the red blood cell to migrate in either configuration, or folded or at an angle. Thus, the apparatus was configured to provide a channel depth of about 3 μm, which confines the cell to move flat into the funnel, not to stand up and fold as it traverses through. The threshold pressure required to push the cell through the funnel is measured as an indicator of the whole cell rigidity or deformability. The minimum applied pressure differential is ˜0.3 Pa. Accordingly, the cortical tension of the cell can be measured based on the information of the cell radius, funnel geometry and measured threshold pressure, as governed by equation (1) above derived from Laplace law PMS (phenazine methosulfate) generates superoxide from within the cell in the same way as the auto-oxidation process inside of the sickled red blood cell (RBC). In response to oxidation, the cell membrane stiffens. This induced stiffening may be employed to simulate the microrheologic properties of dense and/or dehydrated sickle cells (Hebbel, R. P., A. Leung, and N. Mohandas, Oxidation-Induced Changes in Microrheologic Properties of the Red-Blood-Cell Membrane. Blood, 1990. 76(5): p. 1015-1020, Hebbel, R. P., The sickle erythrocyte in double jeopardy: autoxidation and iron decompartmentalization. Seminars in hematology, 1990. 27(1): p. 51-69, and references therein). Here we use microfluidic device to measure the rigidity of PMS treated red blood cells compared to untreated (control) red blood cells, as well as the degree of rigidity change corresponding to different concentration of PMS. RBCs were suspended at 20% hematocrit in balanced salt solution with antibiotics. The RBC suspensions were then modified with 0, 10, 25, and 50 μM PMS for 60 minutes, followed by dilution 200:1 using phosphate buffered saline for use with the apparatus. The PMS treated RBCs and control RBCs were tested to investigate the effect of PMS on rigidity and/or deformability of the RBCs. Measured threshold pressures are an indication of the changes in deformability. […] Threshold pressures were measured of RBC squeezing through 1.1 μm and 1.4 μm constrictions.

COS(=O)(=O)[O-].C[n+]1c2ccccc2nc2ccccc21 [PMS, phenazine methosulfate]
Threshold pressure of RBC squeezing through constrictions (1.1 μm and 1.4 μm constrictions, 0, 10, 25, 50 μM PMS, FIG. 15): increases as the concentration increases
Deformability of the red cell membrane (PMS 10 to 50 μM): decreases as the PMS concentration increases
Average cortical tension calculated based on equation (1) (RBC treated with 10 μmol PMS for 60 minutes): 2.29 ± 0.19 (7) pN/μm
Average cortical tension calculated based on equation (1) (RBC treated with 25 μmol PMS for 60 minutes): 3.38 ± 0.30 (7) pN/μm
Average cortical tension calculated based on equation (1) (RBC treated with 50 μmol PMS for 60 minutes): 4.17 ± 0.19 (8) pN/μm
Red cell rigidity versus normal control RBC (fresh from the PMS treatment): obvious increase in rigidity
